The test system of assay [1] is Sclerotinia sclerotiorum. As to the kind of experiment: Fungicidal activity against Sclerotinia sclerotiorum assessed as fungal inhibitory rate at 16 ug/ml relative to control. In kind it is functional.
In assay [2] the test system is Fusarium oxysporum. As to the kind of experiment: Fungicidal activity against Fusarium oxysporum assessed as fungal inhibitory rate at 16 ug/ml relative to control. It is filed as functional.
Assay [3] relates to Botrytis cinerea. The assay is described as follows: Fungicidal activity against Botrytis cinerea assessed as fungal growth reduction. In kind it is functional, organism-based.
Assay [4] in a line: Inhibition of Botrytis cinerea CYP51 by ELISA. (In general: ELISA stands for enzyme-linked immunosorbent assay.)
In assay [5] the test system is Botrytis cinerea. The assay is described as follows: Fungicidal activity against Botrytis cinerea assessed as fungal inhibitory rate at 16 ug/ml relative to control. It is filed as functional.
For assay [6], the system named is Penicillium digitatum. As to the kind of experiment: Fungicidal activity against Penicillium digitatum assessed as fungal inhibitory rate at 16 ug/ml relative to control. It is filed as functional.
In assay [7] the test system is Colletotrichum lagenaria. As to the kind of experiment: Fungicidal activity against Colletotrichum lagenarium assessed as fungal inhibitory rate at 16 ug/ml relative to control. In kind it is functional.
Assay [8] concerns Aspergillus niger. The assay is described as follows: Antifungal activity against Aspergillus niger. It is filed as functional.

This note sets out measurements from ChEMBL document CHEMBL5506031, “Design, Synthesis, Bioactive Evaluation, and Molecular Dynamics Simulation of Novel 4H-Pyrano[3,2-c]pyridine Analogues as Potential Sterol 14α-Demethylase (CYP51) Inhibitors” (J Med Chem, 2024).

Each structure is given as a SMILES string. Values after ≈ are worked out from the molar mass of the structure shown.

The inhibition is the drop in the measured response relative to a control, in per cent. As usually defined, the EC50 is the concentration that produces a half-maximal response. As a reminder, the IC50 is the concentration that inhibits the measured activity by half. Read a high IC50 as weaker potency. Turning to `COC(=O)C1=C(N)OC2=C(CN(C(=O)c3cccs3)C/C2=C\c2ccc(Br)s2)C1c1ccc(Br)s1` (stereo not drawn), the inhibition at 16 µg/mL stood at 68.5% in assay [1]; 62.9% in assay [2]; 100% in assay [5]; 61% in assay [6]; 66.2% in assay [7]. For the same molecule, the EC50 in assay [3] came out at 1.04 µg/mL (≈ 1.59 µM). This molecule also gave a 50% inhibitory concentration (IC50) in assay [4] of 1.288 µg/mL (≈ 1.97 µM).

Take `N#CC1=C(N)OC2=C(CN(C(=O)c3cccs3)C/C2=C\c2ccc(Cl)s2)C1c1ccc(Cl)s1` (stereo not drawn): the inhibition at 16 µg/mL in assay [1] amounted to 50.8%; in assay [2], 43.5%; in assay [5], 92.9%; in assay [6] it was 44.8%; in assay [7] it was 48.7%. The half-maximal effective concentration (EC50) in assay [3] was 2.25 µg/mL (≈ 4.22 µM). For the same molecule, in assay [4], the IC50 stood at 2.625 µg/mL (≈ 4.93 µM).

As to `COC(=O)C1=C(N)OC2=C(CN(C(=O)c3ccco3)C/C2=C\c2ccc(Br)s2)C1c1ccc(Br)s1` (stereo not drawn), the inhibition at 16 µg/mL in assay [1] was 71.6%; in assay [2] it was 67.5%; in assay [5] it was 100%; in assay [6] it was 64.3%; in assay [7], 69.3%. The EC50 in assay [3] was found to be 0.976 µg/mL (≈ 1.53 µM). The molecule further came in with a half-maximal inhibitory concentration (IC50) in assay [4] of 1.138 µg/mL (≈ 1.78 µM).

Turning to `COC(=O)C1=C(N)OC2=C(CN(C(=O)c3cccs3)C/C2=C\c2ccc(Cl)s2)C1c1ccc(Cl)s1` (stereo not drawn), the inhibition at 16 µg/mL in assay [1] is 74.1%; in assay [2], 72.8%; in assay [5], 100%; in assay [6], 67.5%; in assay [7], 72.2%. For the same molecule, in assay [3], the concentration giving a half-maximal response (EC50) is 0.824 µg/mL (≈ 1.46 µM). In assay [4], this molecule yielded a 50% inhibitory concentration (IC50) of 0.907 µg/mL (≈ 1.6 µM).

As for `N#CC1=C(N)OC2=C(CN(C(=O)c3ccco3)C/C2=C\c2ccc(Br)o2)C1c1ccc(Br)o1` (stereo not drawn), the inhibition at 16 µg/mL came to 55.2% in assay [1]; 50.5% in assay [2]; 100% in assay [5]; 49% in assay [6]; 55.8% in assay [7]. Also, in assay [3], the EC50 turned out to be 1.71 µg/mL (≈ 2.98 µM). For the same molecule, the IC50 in assay [4] worked out at 1.86 µg/mL (≈ 3.24 µM).

The term MIC denotes the lowest concentration found to suppress growth. Regarding `COc1ccc(C2c3ccc4ccccc4c3Oc3[nH]c(=S)[nH]c(=S)c32)cc1` (stereo not drawn), the MIC in assay [8] amounted to 125 µg/mL (≈ 309 µM).

In assay [8], `COc1ccc(C2c3ccc4ncccc4c3Oc3nc[nH]c(=S)c32)cc1` (stereo not drawn) showed an MIC of 125 µg/mL (≈ 335 µM).

Turning to `N#CC1=C(N)OC2=C(CN(C(=O)c3ccco3)C/C2=C\c2ccc(Cl)s2)C1c1ccc(Cl)s1` (stereo not drawn), the inhibition at 16 µg/mL stood at 53.5% in assay [1]; 46.6% in assay [2]; 94% in assay [5]; 47.1% in assay [6]; 52.5% in assay [7]. Further, the EC50 in assay [3] was 2.07 µg/mL (≈ 4.01 µM). In assay [4], this molecule showed a half-inhibitory concentration (IC50) of 2.333 µg/mL (≈ 4.52 µM).

In the case of `N#CC1=C(N)OC2=C(CN(C(=O)c3cccs3)C/C2=C\c2ccco2)C1c1ccco1` (stereo not drawn), the inhibition at 16 µg/mL in assay [1] stood at 58.5%; in assay [2] it was 52.7%; in assay [5], 100%; in assay [6], 51.7%; in assay [7], 57%. In assay [3], the EC50 came to 1.34 µg/mL (≈ 3.1 µM). In assay [4], this molecule gave a half-maximal inhibitory concentration (IC50) of 1.649 µg/mL (≈ 3.82 µM).

In the case of `COC(=O)C1=C(N)OC2=C(CN(C(=O)c3cccs3)C/C2=C\c2ccc(Br)o2)C1c1ccc(Br)o1` (stereo not drawn), the inhibition at 16 µg/mL in assay [1] turned out to be 80%; in assay [2] it was 80.9%; in assay [5], 100%; in assay [6], 73.1%; in assay [7], 78.3%. In assay [3], the EC50 was determined as 0.61 µg/mL (≈ 0.98 µM). Also, the IC50 in assay [4] worked out at 0.748 µg/mL (≈ 1.2 µM).
